BigSolDB 2.1

Cl.N[C@@H](Cc1ccccc1)C(=O)OCc1ccccc1
solubility (mole fraction)
Conditions | 283.15 K | 288.15 K | 293.15 K | 298.15 K | 303.15 K | 313.15 K | 323.15 K
in acetone | 8e-05 | – | 0.000134 | – | 0.000224 | 0.000347 | 0.000511
in acetonitrile | 5.4e-05 | 0.000115 | 0.000188 | 0.000262 | 0.000365 | – | –
in ethanol | 0.00311 | – | 0.00396 | – | 0.00491 | 0.00625 | 0.00832
in ethyl acetate | – | 2.6e-05 | 3.8e-05 | – | 6.3e-05 | 0.000116 | 0.000181
in isobutanol | – | 0.00056 | 0.000879 | – | 0.00121 | 0.00174 | 0.00256
in isopropanol | 0.000417 | – | 0.000588 | – | 0.000882 | 0.00123 | 0.00178
in methanol | 0.0158 | – | 0.0186 | – | 0.0223 | 0.0274 | 0.0324
in n-butanol | 0.0011 | – | 0.0015 | – | 0.00191 | 0.00263 | 0.0039
in n-pentanol | 0.000703 | – | 0.00103 | – | 0.00158 | 0.00213 | 0.00307
in n-propanol | 0.00168 | – | 0.00203 | – | 0.00281 | 0.00386 | 0.00515
in water | 0.000969 | – | 0.0012 | – | 0.0015 | 0.00197 | 0.00266
